# Where no end group is shown, it is not given here. [ ]: non-standard residue; d: D form. Lys(Me2) = CN(C)CCCC[C@H](N)C(=O)O
# Experiments:
# Experiment in all cases: Histone peptide microarray
# Type in all cases: binding, human
# AIRE (PP) = settings: histone peptide array, GST-tagged reader; arrays performed twice, n of 4
# Summary of the method: (§1)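 GST-PHD reader, 0.5 μM, probed on 293-peptide histone array (single/combinatorial PTMs); optimized array protocol; signal = mean ± SD, n = 4.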
# BAZ2B = settings: histone peptide array, GST-tagged reader; arrays performed twice, n of 4
# Summary of the method: as §1
# BPTF (PB) = settings: histone peptide array, GST-tagged reader; PB = PHD + Bromodomain; arrays performed twice, n of 4
# Summary of the method: as §1
# CHD4 (PPCC) = settings: histone peptide array, GST-tagged reader; PPCC = Dual PHD + Dual Chromodomain; arrays performed twice, n of 4
# Summary of the method: as §1
# CHD5 (PCC) = settings: histone peptide array, GST-tagged reader; PCC = PHD + Dual Chromodomain; arrays performed twice, n of 4
# Summary of the method: as §1
# CHD5 (PPCC) = settings: histone peptide array, GST-tagged reader; PPCC = Dual PHD + Dual Chromodomain; arrays performed twice, n of 4
# Summary of the method: as §1
# DIDO1 = settings: histone peptide array, GST-tagged reader; arrays performed twice, n of 4
# Summary of the method: as §1
# DPF2 (PPC2W2) = settings: histone peptide array, GST-tagged reader; PPC2W2 = Dual PHD + C2W2-type Zn-finger; arrays performed twice, n of 4
# Summary of the method: as §1
# ING1 = settings: histone peptide array, GST-tagged reader; arrays performed twice, n of 4
# Summary of the method: as §1
# ING2 = settings: histone peptide array, GST-tagged reader; arrays performed twice, n of 4
# Summary of the method: as §1
# ING3 = settings: histone peptide array, GST-tagged reader; arrays performed twice, n of 4
# Summary of the method: as §1
# ING4 = settings: histone peptide array, GST-tagged reader; arrays performed twice, n of 4
# Summary of the method: as §1
# ING5 = settings: histone peptide array, GST-tagged reader; arrays performed twice, n of 4
# Summary of the method: as §1
# KDM4C (TTP) = settings: histone peptide array, GST-tagged reader; TTP = Tandem Tudor domain + PHD; arrays performed twice, n of 4
# Summary of the method: as §1
# KDM5A (1) = settings: histone peptide array, GST-tagged reader; arrays performed twice, n of 4
# Summary of the method: as §1
# KDM5A (3) = settings: histone peptide array, GST-tagged reader; arrays performed twice, n of 4
# Summary of the method: as §1
# KDM5B (1) = settings: histone peptide array, GST-tagged reader; arrays performed twice, n of 4
# Summary of the method: as §1
# KDM5B (3) = settings: histone peptide array, GST-tagged reader; arrays performed twice, n of 4
# Summary of the method: as §1
# KDM7A = settings: histone peptide array, GST-tagged reader; arrays performed twice, n of 4
# Summary of the method: as §1
# MLL5 = settings: histone peptide array, GST-tagged reader; arrays performed twice, n of 4
# Summary of the method: as §1
# MORC3 (CW) = settings: histone peptide array, GST-tagged reader; CW = CW-type Zn-finger; arrays performed twice, n of 4
# Summary of the method: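 Binding read as mean relative signal from 4 replicates; microarray held 293 synthetic histone peptides with single or combinatorial PTMs. Each GST-tagged PHD reader was applied at 0.5 μM using the optimized Petell protocol.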
# PHF13 = settings: histone peptide array, GST-tagged reader; arrays performed twice, n of 4
# Summary of the method: as §1
# PHF21A = settings: histone peptide array, GST-tagged reader; arrays performed twice, n of 4
# Summary of the method: as §1
# PHF23 = settings: histone peptide array, GST-tagged reader; arrays performed twice, n of 4
# Summary of the method: as §1
# PHF2 = settings: histone peptide array, GST-tagged reader; arrays performed twice, n of 4
# Summary of the method: as §1
# PHF8 = settings: histone peptide array, GST-tagged reader; arrays performed twice, n of 4
# Summary of the method: as §1
# PHRF1 (RP) = settings: histone peptide array, GST-tagged reader; arrays performed twice, n of 4
# Summary of the method: as §1
# RAG2 = settings: histone peptide array, GST-tagged reader; arrays performed twice, n of 4
# Summary of the method: as §1
# SP140L = settings: histone peptide array, GST-tagged reader; arrays performed twice, n of 4
# Summary of the method: as §1
# TAF3 = settings: histone peptide array, GST-tagged reader; arrays performed twice, n of 4
# Summary of the method: as §1
# TRIM66 (PB) = settings: histone peptide array, GST-tagged reader; PB = PHD + Bromodomain; arrays performed twice, n of 4
# Summary of the method: as §1
substance,measurement,setting,value
"H3.3K36me2 (27-45): H3.3 27-45 (KSAPSTGGV[Lys(Me2)]KPHRYRPGT; UniProt P84243 28-46, looked up, fragment)","Array Heatmap signal, AIRE (PP)",AIRE (PP),0.4867
same,"Array Heatmap signal, BAZ2B",BAZ2B,0.4965
same,"Array Heatmap signal, BPTF (PB)",BPTF (PB),0.3735
same,"Array Heatmap signal, CHD4 (PPCC)",CHD4 (PPCC),0.5698
same,"Array Heatmap signal, CHD5 (PCC)",CHD5 (PCC),0.8212
same,"Array Heatmap signal, CHD5 (PPCC)",CHD5 (PPCC),0.6024
same,"Array Heatmap signal, DIDO1",DIDO1,0.7878
same,"Array Heatmap signal, DPF2 (PPC2W2)",DPF2 (PPC2W2),0.6778
same,"Array Heatmap signal, ING1",ING1,0.5396
same,"Array Heatmap signal, ING2",ING2,0.5971
same,"Array Heatmap signal, ING3",ING3,0.5215
same,"Array Heatmap signal, ING4",ING4,0.4773
same,"Array Heatmap signal, ING5",ING5,0.3908
same,"Array Heatmap signal, KDM4C (TTP)",KDM4C (TTP),0.5418
same,"Array Heatmap signal, KDM5A (1)",KDM5A (1),0.505
same,"Array Heatmap signal, KDM5A (3)",KDM5A (3),0.4963
same,"Array Heatmap signal, KDM5B (1)",KDM5B (1),0.6701
same,"Array Heatmap signal, KDM5B (3)",KDM5B (3),0.5383
same,"Array Heatmap signal, KDM7A",KDM7A,0.3737
same,"Array Heatmap signal, MLL5",MLL5,0.5651
same,"Array Heatmap signal, MORC3 (CW)",MORC3 (CW),0.4027
same,"Array Heatmap signal, PHF13",PHF13,0.6587
same,"Array Heatmap signal, PHF21A",PHF21A,0.4763
same,"Array Heatmap signal, PHF23",PHF23,0.5877
same,"Array Heatmap signal, PHF2",PHF2,0.5053
same,"Array Heatmap signal, PHF8",PHF8,0.3824
same,"Array Heatmap signal, PHRF1 (RP)",PHRF1 (RP),0.4622
same,"Array Heatmap signal, RAG2",RAG2,0.3087
same,"Array Heatmap signal, SP140L",SP140L,0.3879
same,"Array Heatmap signal, TAF3",TAF3,0.2867
same,"Array Heatmap signal, TRIM66 (PB)",TRIM66 (PB),0.6104

# — article PMC6979384, “Characterization of the plant homeodomain (PHD) reader family for their histone tail interactions” (Epigenetics & Chromatin, 2020)
